According to ChEMBL document CHEMBL1134487, “Design, synthesis, and biological evaluation of analogues of the antitumor agent, 2-(4-[(7-chloro-2-quinoxalinyl)oxy]phenoxy)propionic acid (XK469)” (2001):
Calls of active or inactive are those of the source. No cut-off for these calls is given here.

How the values were obtained:
[1] = test system: Mus musculus; assay: In vivo activity tested against C3H mice bearing colon adenocarcinoma -38(colon-38) tumor measured as body weight loss at 466 mg/kg (po); assay type: functional
[2] = test system: Mus musculus; assay: In vivo activity tested against C3H mice bearing colon adenocarcinoma -38(colon-38) tumor measured as body weight loss at 753 mg/kg (po); assay type: functional
[3] = test system: Mus musculus; assay: In vivo activity tested against C3H mice bearing colon adenocarcinoma -38(colon-38) tumor measured as % treated/control calculated at 466 mg/kg (po); assay type: functional
[4] = test system: Mus musculus; assay: In vivo activity tested against C3H mice bearing colon adenocarcinoma -38(colon-38) tumor measured as % treated/control calculated at 753 mg/kg (po); assay type: functional
[5] = test system: Mus musculus; assay: In vivo activity tested against C3H mice bearing colon adenocarcinoma -38(colon-38) tumor measured as activity rating at 466 mg/kg (po); assay type: functional
[6] = test system: Mus musculus; assay: In vivo activity tested against C3H mice bearing colon adenocarcinoma -38(colon-38) tumor measured as activity rating at 753 mg/kg (po); assay type: functional
[7] = test system: Mus musculus; assay: In vivo activity tested against C3H mice bearing colon adenocarcinoma -38(colon-38) tumor, measured as cures at 466 mg/kg (po); 3/5 cures; assay type: functional
[8] = test system: Mus musculus; assay: In vivo activity tested against C3H mice bearing colon adenocarcinoma -38(colon-38) tumor, measured as cures at 753 mg/kg (po); 2/5 cures; assay type: functional
[9] = test system: Mus musculus; assay: In vivo activity tested against C3H mice bearing colon adenocarcinoma -38(colon-38) tumor measured as log Kill value was based on tumors that grew at 466 mg/kg (po); assay type: functional, organism-based; design: dose 466 mg/kg
[10] = test system: Mus musculus; assay: In vivo activity tested against C3H mice bearing colon adenocarcinoma -38(colon-38) tumor measured as log Kill value was based on tumors that grew at 753 mg/kg (po); assay type: functional, organism-based; design: dose 753 mg/kg
[11] = test system: Mus musculus; assay: In vivo activity tested against C3H mice bearing panc-03 murine tumor measured as body weight loss at 1310 mg/kg (po); assay type: functional
[12] = test system: Mus musculus; assay: In vivo activity tested against C3H mice bearing panc-03 murine tumor measured as % treated/control calculated at 1310 mg/kg (po); assay type: functional
[13] = test system: Mus musculus; assay: In vivo activity tested against C3H mice bearing panc-03 murine tumor measured as log Kill value was based on tumors that grew at 1310 mg/kg (po); assay type: functional, organism-based; design: dose 1310 mg/kg
[14] = test system: Mus musculus; assay: In vivo activity tested against C3H mice bearing panc-03 murine tumor measured as body weight loss at 1530 mg/kg (po); assay type: functional
[15] = test system: Mus musculus; assay: In vivo activity tested against C3H mice bearing panc-03 murine tumor measured as log Kill value was based on tumors that grew at 1530 mg/kg (po); assay type: functional, organism-based; design: dose 1530 mg/kg
[16] = test system: Mus musculus; assay: In vivo activity tested against C3H mice bearing panc-03 murine tumor measured as % treated/control calculated at 1530 mg/kg (po); assay type: functional
[17] = test system: Mus musculus; assay: In vivo activity tested against C3H mice bearing panc-03 murine tumor measured as % treated/control calculated at 287 mg/kg (po); assay type: functional
[18] = test system: Mus musculus; assay: In vivo activity tested against C3H mice bearing panc-03 murine tumor measured as % treated/control calculated at 351 mg/kg (po); assay type: functional
[19] = test system: Mus musculus; assay: In vivo activity tested against C3H mice bearing panc-03 murine tumor measured as body weight loss at 287 mg/kg (po); assay type: functional
[20] = test system: Mus musculus; assay: In vivo activity tested against C3H mice bearing panc-03 murine tumor measured as body weight loss at 351 mg/kg (po); assay type: functional
[21] = test system: Mus musculus; assay: In vivo activity tested against C3H mice bearing panc-03 murine tumor measured as log Kill value was based on tumors that grew at 287 mg/kg (po); assay type: functional, organism-based; design: dose 287 mg/kg
[22] = test system: Mus musculus; assay: In vivo activity tested against C3H mice bearing panc-03 murine tumor measured as log Kill value was based on tumors that grew at 351 mg/kg (po); assay type: functional, organism-based; design: dose 351 mg/kg
[23] = test system: Mus musculus; assay: In vivo activity tested against C3H mice bearing colon adenocarcinoma -38(colon-38) tumor measured as body weight loss at 1590 mg/kg (po); assay type: functional
[24] = test system: Mus musculus; assay: In vivo activity tested against C3H mice bearing colon adenocarcinoma -38(colon-38) tumor measured as % treated/control calculated at 1590 mg/kg (po); assay type: functional
[25] = test system: Mus musculus; assay: In vivo activity tested against C3H mice bearing colon adenocarcinoma -38(colon-38) tumor measured as log Kill value was based on tumors that grew at 1590 mg/kg (po); None; assay type: functional, organism-based; design: dose 1590 mg/kg
[26] = test system: Mus musculus; assay: In vivo activity tested against C3H mice bearing colon adenocarcinoma -38(colon-38) tumor measured as activity rating at 1590 mg/kg (po); assay type: functional
[27] = test system: Mus musculus; assay: In vivo activity tested against C3H mice bearing panc-03 murine tumor measured as % treated/control calculated at 480 mg/kg (po); assay type: functional
[28] = test system: Mus musculus; assay: In vivo activity tested against C3H mice bearing panc-03 murine tumor measured as body weight loss at 2300 mg/kg (po); assay type: functional
[29] = test system: Mus musculus; assay: In vivo activity tested against C3H mice bearing panc-03 murine tumor measured as body weight loss at 480 mg/kg (po); assay type: functional
[30] = test system: Mus musculus; assay: In vivo activity tested against C3H mice bearing panc-03 murine tumor measured as log Kill value was based on tumors that grew at 2300 mg/kg (po); assay type: functional, organism-based; design: dose 2300 mg/kg
[31] = test system: Mus musculus; assay: In vivo activity tested against C3H mice bearing panc-03 murine tumor measured as log Kill value was based on tumors that grew at 480 mg/kg (po); assay type: functional, organism-based; design: dose 480 mg/kg
[32] = test system: Mus musculus; assay: In vivo activity tested against C3H mice bearing panc-03 murine tumor measured as % treated/control calculated at 2300 mg/kg (po); assay type: functional
[33] = test system: Mus musculus; assay: In vivo activity tested against C3H mice bearing panc-03 murine tumor measured as cures at 2300 mg/kg (po); 1/5 cures; assay type: functional
[34] = test system: Mus musculus; assay: In vivo activity tested against C3H mice bearing panc-03 murine tumor measured as % treated/control calculated at 530 mg/kg (po); assay type: functional
[35] = test system: Mus musculus; assay: In vivo activity tested against C3H mice bearing panc-03 murine tumor measured as body weight loss at 530 mg/kg (po); assay type: functional
[36] = test system: Mus musculus; assay: In vivo activity tested against C3H mice bearing panc-03 murine tumor measured as log Kill value was based on tumors that grew at 530 mg/kg (po); assay type: functional, organism-based; design: dose 530 mg/kg
[37] = test system: Mus musculus; assay: In vivo activity tested against C3H mice bearing panc-03 murine tumor at a dose of 330mg/kg, measured as % treated/control; assay type: functional
[38] = test system: Mus musculus; assay: In vivo activity tested against C3H mice bearing Mam 17/Adr murine tumor at a dose of 330 mg/kg, measured as activity rating; assay type: functional
[39] = test system: Mus musculus; assay: In vivo activity tested against C3H mice bearing panc-03 murine tumor at a dose of 330mg/kg, measured as activity rating; assay type: functional
[40] = test system: Mus musculus; assay: In vivo activity tested against C3H mice bearing panc-03 murine tumor measured as% treated/control calculated at 477 mg/kg (po); assay type: functional
[41] = test system: Mus musculus; assay: In vivo activity tested against C3H mice bearing panc-03 murine tumor measured as body weight loss at 477 mg/kg (po); assay type: functional
[42] = test system: Mus musculus; assay: In vivo activity tested against C3H mice bearing panc-03 murine tumor measured as log Kill value was based on tumors that grew at 477 mg/kg (po); kill value was NIL; assay type: functional, organism-based; design: dose 477 mg/kg
[43] = test system: Mus musculus; assay: In vivo activity tested against C3H mice bearing panc-03 murine tumor; assay type: functional
[44] = test system: Mus musculus; assay: In vivo activity tested against C3H mice bearing panc-03 murine tumor measured as % treated/control calculated at 939 mg/kg (po); assay type: functional
[45] = test system: Mus musculus; assay: In vivo activity tested against C3H mice bearing panc-03 murine tumor measured as body weight loss at 939 mg/kg (po); assay type: functional
[46] = test system: Mus musculus; assay: In vivo activity tested against C3H mice bearing panc-03 murine tumor measured as log Kill value was based on tumors that grew at 939 mg/kg (po); assay type: functional, organism-based; design: dose 939 mg/kg

With CC(Oc1ccc(Oc2cnc3ccc(Br)cc3n2)cc1)C(=O)O (stereo unspecified) the Body weight loss [1] was -7%, the Body weight loss [2] was -12% and the T/C [3] was 0%. It also gave a T/C [4] of 0%, an Activity rating [5] of 2.8 and an Activity rating [6] greater than 2.8. The Cures [7] was 3, the Cures [8] was 2 and the Log kill [9] was 2.1. For the same compound, the Log kill [10] was 3.
CC(Oc1ccc(Oc2cnc3ccc([N+](=O)[O-])cc3n2)cc1)C(=O)O (stereo unspecified) showed a Body weight loss [11] of -3.5%, a T/C [12] of 52% and a Log kill [13] of 0.6.
CC(Oc1ccc(Oc2cnc3ccc(Cl)cc3n2)cc1)C(=O)N(C)C (stereo unspecified) showed a Body weight loss [14] of -3.8%, a Log kill [15] of 2.2 and a T/C [16] of 16%.
With CC(Oc1ccc(Oc2cnc3cccc(Cl)c3n2)cc1)C(=O)O (stereo unspecified) the T/C [17] was 69%, the T/C [18] was 74% and the Body weight loss [19] was -3.9%. It also gave a Body weight loss [20] of -4%, a Log kill [21] of 0.1 and a Log kill [22] of 0.
CC(Oc1ccc(Oc2cnc3cc(Cl)ccc3n2)cc1)C(=O)O (stereo unspecified) [QUIZALOFOP] was tested, and the Body weight loss [23] was -4%, the T/C [24] was greater than 100% and the Log kill [25] was “inactive”. For the same compound, the Activity rating [26] was less than 0.7.
CNC(=O)C(C)Oc1ccc(Oc2cnc3ccc(Cl)cc3n2)cc1 (stereo unspecified) showed a T/C [27] of 39%, a Body weight loss [28] of -14.5% and a Body weight loss [29] of -9.3%. For the same compound, the Log kill [30] was 4.2, the Log kill [31] was 1.2 and the T/C [32] was 4%. The Cures [33] was 1.
With CC(Oc1ccc(Oc2cnc3ccc(I)cc3n2)cc1)C(=O)O (stereo unspecified) the T/C [34] was 15%, the Body weight loss [35] was 0% and the Log kill [36] was 1.8.
CC(Sc1ccc(Oc2cnc3ccc(Cl)cc3n2)cc1)C(=O)O (stereo unspecified) gave a T/C [37] of 100%, an Activity rating [38] greater than 2.8 and an Activity rating [39] greater than 2.8.
CC(Oc1ccc(Oc2cnc3ccc(Cl)cc3n2)cc1)C1N=NN=N1 (stereo unspecified) was tested, and the T/C [40] was greater than 100%, the Body weight loss [41] was 8.7% and the Log kill [42] was “kill value was NIL”. The Activity rating [43] was less than 0.7.
For COc1ccc2ncc(Oc3ccc(OC(C)C(=O)O)cc3)nc2c1Cl (stereo unspecified), the T/C [44] was 76%, the Body weight loss [45] was 11.1% and the Log kill [46] was 0.
